Key:
[1] = tested on: TGF-β1, VEGF, and Snail mRNA in rat peritoneal tissue; experiment: RT-PCR of rat peritoneal tissue after MGO treatment; assay type: in vivo, Sprague-Dawley (SD) rats; conditions: representative PCR
Method: (§1) All animal experiments were performed following the guidelines of the Institutional Committee for Animal Experimentation of Taipei Veterans General Hospital. Five week-old male Sprague-Dawley (SD) rats were purchased from the Laboratory Animal Center of National Yang-Ming University. Peritoneal dialysis fluid (PDF) was prepared according to Hirahara et al. [10;22], containing 2.5% glucose, 100 mmol/L NaCl, 35 mmol/L sodium lactate, 2 mmol/L CaCl2, and 0.7 mmol/L MgCl2, in a pH of 5.0. To test MGO effects, fifty mL/kg of PDF containing 0, 3, 6, 12 mM MGO (Sigma, St. Louis, Mo., USA) were injected intra-peritoneally for ten consecutive days. Dimethyl sulfoxide (DMSO) (Sigma, St. Louis, Mo., USA) was used as the solvent of MGO. For investigation of the effects of CBR ligands, SD rats were pretreated with PDF containing either a selective CB1R antagonist, AM281 (Alexis Biochemicals, Enzo Life Sciences, Farmingdale, N.Y., USA) (1 mg/kg/day) or a selective CB2R agonist, AM1241 (Sigma, St. Louis, Mo., USA) (1 mg/kg/day) for 3 days followed by continuous treatment of PDF containing respective CBR ligands (AM281 or AM1241) and 6 mM MGO for 10 days. Animals receiving PDF containing DMSO vehicle (without MGO) were used as control (n=6/group). All animals were euthanized at the end of experiments by exsanguinations under general anesthesia.
(§2) For mRNA expression analysis of peritoneal tissue TGF-β1, VEGF, and Snail, the rat peritoneum was resected and incubated with trypsin at 37° C. for 30 minutes. The mesothelium was then scratched from peritoneal surface and collected for reverse transcription-polymerase chain reaction (RT-PCR). In the mesothelial cell culture, the mRNA expression of CB1R, CB2R, and type I collagen were also assessed by the PCR analysis. Total RNA was extracted with TRIzol (Invitrogen, Carlsbad, Calif., USA). Contaminated genomic DNA was removed with RNAse-free DNAse (Ambion, Austin, Tex., USA) following the manufacturer's protocol. […]

[2] = tested on: MGO-induced peritoneal fibrosis; experiment: MGO-induced peritoneal fibrosis in rats, effects of CBR ligands (histology, morphometry); assay type: in vivo, Sprague-Dawley (SD) rats; conditions: 1 mg/kg/day in PDF i.p., n=6; for MGO-induced peritoneal thickening: 3 days pretreatment then 10 days with 6 mM MGO, Masson's trichrome
Method: as §1
Certain sections of rat peritoneal tissues were frozen at −80° C. for immunofluorescent analysis, while the remainder were fixed in a neutral formalin solution and then embedded in paraffin for histological analysis. For immunofluorescent staining of CBR, rat brain and spleen were used as the positive control of CB1R and CB2R, respectively. For peritoneal thickness quantification, parietal peritoneum sized 1.0×0.5 cm were sampled from four separate peritoneal sites of each rat, including right ventral, left ventral, right lateral, and left lateral abdomen. For each sampling site, the peritoneal thickness was averaged from 15 evenly measured points. Tissue sections were stained with Masson's trichrome to quantify peritoneal fibrosis. The number of mesothelial cells was determined by morphometric method. The hematoxylin and eosin-stained sections were digitalized using an Aperio ScanScope slide scanner (Aperio, San Diego, Calif., USA) at its highest resolution. The mean mesothelial cells per mm surface of peritoneal membrane were counted from 15 points in each peritoneal tissue section from four separate peritoneal areas per animal. The peritoneal angiogenesis was quantified as described by Patel et al.. […] The mean vessels per mm peritoneal membrane were counted from 15 points in each peritoneal tissue section from four separate peritoneal areas per animal.

TGF-β1-activated PI3K = experiment: Western blot of PI3K in MeT-5A cells; assay type: cell-based, human; conditions: p110 catalytic subunit
Method: (§3) To assess the effects of CB1R antagonist on mesothelial cells, we pretreated the MeT-5A cells and RPMC with 5 μM of AM281 for 1 hour, and followed by simultaneous AM281 and TGF-β1 (R&D systems, Minneapolis, Minn., USA) treatment for 5 days. Various TGF-β1 concentrations (0.1 to 1.0 ng/mL) were used. In the CB2R experiment, AM1241 was used instead to test MeT-5A cells and HPMC.
Phosphatidyl inositol 3 kinase (PI3K) activity in the MeT-5A cells was assessed by Western blot. Cell lysates were subjected to SDS-PAGE and probed with primary antibodies against the p110 catalytic subunit of PI3K (Upstate Millipore, Billerica, Mass., USA) or β-actin (Amersham Life Science, Buckinghamshire, UK).

[3] = tested on: MeT-5A human mesothelial cell line; experiment: TGF-β1-treated MeT-5A mesothelial cells: morphology, immunofluorescent staining; assay type: cell-based
Method: (§4) The MeT-5A human mesothelial cell line, obtained from the American Type Culture Collection (ATCC, Manassas, Va., USA), was cultured in DMEM (Biological Industries, Israel) containing 15% fetal bovine serum (Thermo Scientific, Waltham, Mass., USA), and 1% penicillin/streptomycin/L-glutamine (Biological Industries, Israel). The primary culture of human peritoneal mesothelial cells (HPMC) were prepared as previously described. All patient materials were processed following the ethics regulations of the Institutional Review Board of Taipei Veterans General Hospital.
as §3
For immunofluorescent studies, we grew mesothelial cells in slide flasks (Lab-Tek II; Nalge Nunc. Naperville, Ill., USA).
Cells were observed using a confocal LASER microscope (Leica, Wetzlar, Germany), and fluorescent intensity was analyzed using an image-processing software (AlphaEaseFC 4.0, Alpha Innotech, Santa Clara, Calif., USA). The cytoplasmic fluorescent intensity of individual cell is defined as integrated density value (IDV) of selected cytoplasmic area; the average fluorescent intensity of an image field is defined as average density value (ADV=total IDV/total cytoplasmic area).

[4] = tested on: rat peritoneal mesothelial cells (RPMC); experiment: TGF-β1-treated rat peritoneal mesothelial cell (RPMC) culture: morphology; assay type: cell-based; conditions: 5 μM, 1 hour pretreatment, then with TGF-β1 for 5 days
Method: The primary culture of rat peritoneal mesothelial cells (RPMC) were isolated from 5-week-old male SD rats. Trypsin-EDTA (Gibco, Grand Island, N.Y., USA) (1.25%; 100 mL/kg) was injected intra-peritoneally and was then aspirated after a 2-hour dwelling. The aspirate was centrifuged for 10 minutes at 1500 rpm, and was washed with phosphate buffered saline, and then cultured in DMEM containing 10% fetal bovine serum, and 1% penicillin/streptomycin/L-glutamine.
as §3

[5] = tested on: human peritoneal mesothelial cells (HPMC); experiment: PCR analysis of type I collagen in TGF-β1-treated HPMC; assay type: cell-based; conditions: low TGF-β1 concentrations (0.01-0.05 ng/mL), differences not statistically significant
Method: as §4, §3
as §2, with “analysis.” for “analysis. Total RNA was extracted with TRIzol (Invitrogen, Carlsbad, Calif., USA). Contaminated genomic DNA was removed with RNAse-free DNAse (Ambion, Austin, Tex., USA) following the manufacturer's protocol.”

rat peritoneum = experiment: Intra-peritoneal PDF containing MGO in rats (peritoneal injury); assay type: in vivo, Sprague-Dawley (SD) rats; conditions: n=6
Method: All animal experiments were performed following the guidelines of the Institutional Committee for Animal Experimentation of Taipei Veterans General Hospital. Five week-old male Sprague-Dawley (SD) rats were purchased from the Laboratory Animal Center of National Yang-Ming University. Peritoneal dialysis fluid (PDF) was prepared according to Hirahara et al. [10;22], containing 2.5% glucose, 100 mmol/L NaCl, 35 mmol/L sodium lactate, 2 mmol/L CaCl2, and 0.7 mmol/L MgCl2, in a pH of 5.0. To test MGO effects, fifty mL/kg of PDF containing 0, 3, 6, 12 mM MGO (Sigma, St. Louis, Mo., USA) were injected intra-peritoneally for ten consecutive days. Dimethyl sulfoxide (DMSO) (Sigma, St. Louis, Mo., USA) was used as the solvent of MGO. […]
Certain sections of rat peritoneal tissues were frozen at −80° C. for immunofluorescent analysis, while the remainder were fixed in a neutral formalin solution and then embedded in paraffin for histological analysis. […] For peritoneal thickness quantification, parietal peritoneum sized 1.0×0.5 cm were sampled from four separate peritoneal sites of each rat, including right ventral, left ventral, right lateral, and left lateral abdomen. For each sampling site, the peritoneal thickness was averaged from 15 evenly measured points. […] The number of mesothelial cells was determined by morphometric method. […]

[6] = humans, long-term basis; cited from earlier work
[7] = tested on: CB1R and CB2R expression in MeT-5A cells; experiment: PCR assessment of CB1R and CB2R expression after TGF-β1 treatment; assay type: cell-based, human; conditions: exogenous TGF-β1, RT-PCR
Method: as §4
as §2, with “protocol. First-strand cDNA was synthesized from total RNA with Superscript™ first-strand cDNA synthesis system for RT-PCR (Invitrogen, Carlsbad, Calif., USA) using Oligo(dT) as primers. GAPDH was used as control.” for “protocol.”

[8] = in the presence of TGF-β1, immunofluorescent staining

Cc1c(C(=O)NN2CCOCC2)nn(-c2ccc(Cl)cc2Cl)c1-c1ccc(I)cc1 [AM281, N-(morpholin-1-yl)-1-(2,4-dichlorophenyl)-5-(4-iodophenyl)-4-methyl-1H-pyrazole-3-carboxamide]
up-regulated Snail after MGO treatment [1]: attenuated
up-regulated TGF-β1 after MGO treatment [1]: attenuated
up-regulated VEGF after MGO treatment [1]: attenuated
MGO-induced mesothelial cell detachment ([2]; 6 mM MGO 10 days): attenuated
MGO-induced angiogenesis ([2]; 6 mM MGO 10 days, α-SMA staining): attenuated
MGO-induced peritoneal thickening [2]: significantly attenuated
TGF-β1-activated PI3K (TGF-β1-activated PI3K): suppressed
TGF-β1-induced cell elongation ([3]; 5 μM, 1 hour pretreatment, then with TGF-β1 for 5 days): reduces
expression of E-cadherin [3, 8]: preserving
expression of cytokeratin 8/18 [3, 8]: preserving
type I collagen synthesis [3, 8]: inhibited
TGF-β1-induced cell elongation [4]: reduces

CN1CCCCC1Cn1cc(C(=O)c2cc([N+](=O)[O-])ccc2I)c2ccccc21 (stereo not drawn) [AM1241, (2-iodo-5-nitrophenyl)-[1-[(1-methylpiperidin-2-yl)methyl]indol-3-yl]methanone]
MGO-induced peritoneal thickening [2]: significantly attenuated
type I collagen synthesis [5]: tended to suppress

CC(=O)C=O [MGO, methylglyoxal]
peritoneal thickness (rat peritoneum; PDF containing 0, 3, 6, 12 mM MGO i.p. for ten consecutive days): significant increase
surface mesothelial cells (rat peritoneum; higher concentration of MGO (6-12 mM), i.p. ten days): prominent loss

C=C(C)[C@@H]1CCC(C)=C[C@H]1c1c(O)cc(CCCCC)cc1O [cannabidiol]
tolerability on long-term administration [6]: well-tolerated without adverse effects

TGF-β1: exogenous TGF-β1 (R&D systems) used to treat mesothelial cells
CBR levels (CB1R, CB2R mRNA) [7]: no significant effect
